Patent publication US11149011B2, “Compounds and methods for IDO and TDO modulation, and indications therefor” (Plexxikon Inc., priority 2018, dated 2021)

Experiments:
[1] = target: T1, TDO (Homo sapiens, UniProt P48775); assay: TDO enzymatic assay; conditions: geometric mean; read-out: TDO GMean: IC50 (μM) (Biochemical Assay)
T1 construct: His tag (N); made in house; host or cells: E. coli
Procedure: (§1) Human IDO or TDO with N-terminal His tag is purified in E. coli. The IDO enzymatic assay is performed using 6 nM IDO and 10 μM L-Trp in the presence of 10 mM ascorbic acid, 5 μM methylene blue, 100 nM catalase and 0.01% Tween 20 in 50 mM sodium phosphate buffer (pH 6.5). 19 μL of above reaction mixture is added to wells of 384 well reaction plate containing 1 μL of various concentrations of test compound or DMSO vehicle and incubated for 20 minutes at room temperature. The TDO enzymatic reaction assay is performed using 1 nM TDO and 350 μM L-Trp in the presence of 10 mM ascorbic acid, 0.4 μM methylene blue, 100 nM catalase and 0.01% Tween 20 in 50 mM sodium phosphate buffer (pH 6.5). 19 μL of above reaction mixture is added to wells of 384 well reaction plate containing 1 μL of various concentrations of test compound or DMSO vehicle and incubated for 70 minutes at room temperature. 16 wells containing all the components of reaction mixture and 5% DMSO serve as high control. 16 well containing all the components except enzyme of reaction mixture and 5% DMSO serves as low control. Both IDO and TDO enzymatic reactions are stopped by addition of 4 μL of 30% TCA and incubated 30 minutes at 50° C. to hydrolyze N-formylkynurenine produced by IDO or TDO to kynurenine. Upon measuring the kynurenine level, the percentage inhibition is calculated at individual concentrations relative to high and low controls. The data is analyzed by using nonlinear regression to generate IC50 values.

[2] = target: T2, IDO1-expressing HEK293 cell clones (Homo sapiens, UniProt P14902); assay: Cell based kynurenine assay, IDO1-expressing HEK293 cell clones; conditions: HEK293 cells, 24 hours of incubation, geometric mean; read-out: HEK293 IDO1 Kynurenine GMean IC50 (μM) (Cellular Assay)
T2 construct: expressed in transfected cells; host or cells: HEK293
Procedure: (§2) IDO1-expressing or TDO-expressing HEK293 cell clones are generated upon stable transfection of plasmids expressing human IDO or human TDO under the control of CMV promoter. Cells are selected in DMEM media supplemented with 10% fetal bovine serum and 1 mg/ml G418 at 37° C. in a humidified incubator supplied with 5% CO2. The assays are performed as follows.
(§3) Cells were seeded in a 96 well plate in 50 μL of culture media at a density of 2.5×10^4 per well. Serial dilutions of compounds (in total volume of 50 μL culture media) are added into cells. 4 wells containing 0.2% DMSO treated cells serve as high controls and 4 wells containing media only with 0.2% DMSO serve as low controls. After 24 hours of incubation, the supernatant was transferred to a 384 well reaction plate and the kynurenine level determined. The percentage inhibition at individual concentrations relative to high and low controls is calculated. The data is analyzed by using nonlinear regression to generate IC50 values.

[3] = target: T3, IDO1 (Homo sapiens, UniProt P14902); assay: IDO enzymatic assay; assay type: biochemical; conditions: geometric mean; read-out: IDO1 GMean: IC50 (μM) (Biochemical Assay)
T3 construct: His tag (N); made in house; host or cells: E. coli
Procedure: as §1

[4] = target: T4, TDO-expressing HEK293 cell clones (Homo sapiens, UniProt P48775); assay: Cell based kynurenine assay, TDO-expressing HEK293 cell clones; conditions: HEK293 cells, 24 hours of incubation, geometric mean; read-out: HEK293 TDO Kynurenine GMean IC50 (μM) (Cellular Assay)
T4 construct: expressed in transfected cells; host or cells: HEK293
Procedure: as §2, §3

T1 sequence (P48775 whole entry): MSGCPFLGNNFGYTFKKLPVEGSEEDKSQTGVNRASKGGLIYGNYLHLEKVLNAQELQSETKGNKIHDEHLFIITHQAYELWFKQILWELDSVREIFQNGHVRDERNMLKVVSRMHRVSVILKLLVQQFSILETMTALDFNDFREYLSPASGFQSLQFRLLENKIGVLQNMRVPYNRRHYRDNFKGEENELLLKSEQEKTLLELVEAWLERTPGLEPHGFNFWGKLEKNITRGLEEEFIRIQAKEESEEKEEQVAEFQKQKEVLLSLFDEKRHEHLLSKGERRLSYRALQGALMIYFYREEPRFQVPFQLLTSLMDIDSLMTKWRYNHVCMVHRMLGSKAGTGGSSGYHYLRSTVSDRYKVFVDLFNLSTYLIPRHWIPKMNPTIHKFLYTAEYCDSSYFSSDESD
T4 sequence (P48775 whole entry): as above
T3 sequence (P14902 whole entry): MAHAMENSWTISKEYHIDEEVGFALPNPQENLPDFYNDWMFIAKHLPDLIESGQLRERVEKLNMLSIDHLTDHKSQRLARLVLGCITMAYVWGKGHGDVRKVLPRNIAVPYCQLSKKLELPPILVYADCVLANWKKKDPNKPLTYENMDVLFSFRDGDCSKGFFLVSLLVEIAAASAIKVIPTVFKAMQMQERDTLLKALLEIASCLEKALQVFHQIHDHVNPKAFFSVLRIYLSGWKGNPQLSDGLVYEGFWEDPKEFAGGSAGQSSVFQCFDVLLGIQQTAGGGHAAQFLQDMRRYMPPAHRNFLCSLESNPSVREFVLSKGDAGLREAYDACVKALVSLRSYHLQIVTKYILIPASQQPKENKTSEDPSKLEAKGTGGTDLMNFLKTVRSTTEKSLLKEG
T2 sequence (P14902 whole entry): as above

SMILES | IC50 [1] | IC50 [2] | IC50 [3] | IC50 [4]
CC(C)(C1CCN(C(=O)C2CC2)CC1)C(O)c1cc(Cl)cc2[nH]ncc12 (stereo not drawn) [Compound P-0046, (4-(1-(6-chloro-1H-indazol-4-yl)-1-hydroxy-2-methylpropan-2-yl)piperidin-1-yl)(cyclopropyl)methanone] | 0.0001 to 10 µM | > 10 µM | 0.0001 to 10 µM | 0.0001 to 10 µM
CC(C)(C1CCN(C(=O)CC(F)(F)F)CC1)C(O)c1cc(Cl)cc2[nH]ncc12 (stereo not drawn) [Compound P-0051, 1-(4-(1-(6-chloro-1H-indazol-4-yl)-1-hydroxy-2-methylpropan-2-yl)piperidin-1-yl)-3,3,3-trifluoropropan-1-one] | 0.0001 to 10 µM | 0.0001 to 10 µM | 0.0001 to 10 µM | 0.0001 to 10 µM
O=C(NC1CC(F)(F)C1)N1CCC(C(F)(F)C(=O)c2c(F)c(Cl)cc3cn[nH]c23)CC1 [Compound P-0040, 4-(2-(5-chloro-6-fluoro-1H-indazol-7-yl)-1,1-difluoro-2-oxoethyl)-N-(3,3-difluorocyclobutyl)piperidine-1-carboxamide] | 0.0001 to 10 µM | 0.0001 to 10 µM | 0.0001 to 10 µM | 0.0001 to 10 µM
CC(C)(C1CCN(C(=O)NOCC(F)(F)F)CC1)[C@H](O)c1cc(Cl)cc2cn[nH]c12 [Compound P-0065, (S)-4-(1-(5-chloro-1H-indazol-7-yl)-1-hydroxy-2-methylpropan-2-yl)-N-(2,2,2-trifluoroethoxy)piperidine-1-carboxamide] | 0.0001 to 10 µM | 0.0001 to 10 µM | 0.0001 to 10 µM | 0.0001 to 10 µM
C[C@@H](NC(=O)N1CCC(C(C)(C)[C@H](O)c2cc(Cl)cc3cn[nH]c23)CC1)c1ccccn1 [Compound P-0028, 4-((S)-1-(5-chloro-1H-indazol-7-yl)-1-hydroxy-2-methylpropan-2-yl)-N-((R)-1-(pyridin-2-yl)ethyl)piperidine-1-carboxamide] | 0.0001 to 10 µM | 0.0001 to 10 µM | 0.0001 to 10 µM | 0.0001 to 10 µM
CC(C)(C1CCN(C(=O)CC2CCOCC2)CC1)C(O)c1cc(Cl)cc2[nH]ncc12 (stereo not drawn) [Compound P-0050, 1-(4-(1-(6-chloro-1H-indazol-4-yl)-1-hydroxy-2-methylpropan-2-yl)piperidin-1-yl)-2-(tetrahydro-2H-pyran-4-yl)ethan-1-one] | 0.0001 to 10 µM | 0.0001 to 10 µM | 0.0001 to 10 µM | 0.0001 to 10 µM
CC(C)(C1CCN(C(=O)N[C@H]2CCC[C@@H]2O)CC1)[C@H](O)c1cc(Cl)cc2cn[nH]c12 [Compound P-0024, 4-((S)-1-(5-chloro-1H-indazol-7-yl)-1-hydroxy-2-methylpropan-2-yl)-N-((1S,2S)-2-hydroxycyclopentyl)piperidine-1-carboxamide] | 0.0001 to 10 µM | 0.0001 to 10 µM | 0.0001 to 10 µM | 0.0001 to 10 µM
CC(C)(C1CCN(C(=O)NCc2cncnc2)CC1)[C@H](O)c1cc(Cl)cc2cn[nH]c12 [Compound P-0026, (S)-4-(1-(5-chloro-1H-indazol-7-yl)-1-hydroxy-2-methylpropan-2-yl)-N-(pyrimidin-5-ylmethyl)piperidine-1-carboxamide] | 0.0001 to 10 µM | 0.0001 to 10 µM | 0.0001 to 10 µM | 0.0001 to 10 µM
CC(C)(C1CCN(C(=O)NCCN2CCOCC2)CC1)[C@H](O)c1cc(Cl)cc2cn[nH]c12 [Compound P-0020, (S)-4-(1-(5-chloro-1H-indazol-7-yl)-1-hydroxy-2-methylpropan-2-yl)-N-(2-morpholinoethyl)piperidine-1-carboxamide] | 0.0001 to 10 µM | 0.0001 to 10 µM | 0.0001 to 10 µM | 0.0001 to 10 µM
COCCCNC(=O)N1CCC(C(F)(F)C(=O)c2c(F)c(Cl)cc3cn[nH]c23)CC1 [Compound P-0037, 4-(2-(5-chloro-6-fluoro-1H-indazol-7-yl)-1,1-difluoro-2-oxoethyl)-N-(3-methoxypropyl)piperidine-1-carboxamide] | 0.0001 to 10 µM | 0.0001 to 10 µM | 0.0001 to 10 µM | 0.0001 to 10 µM

Other lines, results leading:

IC50 [1] | IC50 [2] | IC50 [3] | IC50 [4] | SMILES
0.0001 to 10 µM | 0.0001 to 10 µM | 0.0001 to 10 µM | 0.0001 to 10 µM | CCNC(=O)N1CCC(C(C)(C)C(O)c2cc(Cl)cc3[nH]ncc23)CC1 (stereo not drawn) [Compound P-0076, 4-(1-(6-chloro-1H-indazol-4-yl)-1-hydroxy-2-methylpropan-2-yl)-N-ethylpiperidine-1-carboxamide]
0.0001 to 10 µM | 0.0001 to 10 µM | 0.0001 to 10 µM | 0.0001 to 10 µM | CC(C)NC(=O)N1CCC(C(C)(C)C(O)c2cc(Cl)cc3[nH]ncc23)CC1 (stereo not drawn) [Compound P-0074, 4-(1-(6-chloro-1H-indazol-4-yl)-1-hydroxy-2-methylpropan-2-yl)-N-isopropylpiperidine-1-carboxamide]
0.0001 to 10 µM | 0.0001 to 10 µM | 0.0001 to 10 µM | 0.0001 to 10 µM | CC(C)(O)C(=O)N1CCC(C(C)(C)[C@H](O)c2cc(Cl)cc3cn[nH]c23)CC1 [Compound P-0132, (S)-1-(4-(1-(5-chloro-1H-indazol-7-yl)-1-hydroxy-2-methylpropan-2-yl)piperidin-1-yl)-2-hydroxy-2-methylpropan-1-one]
0.0001 to 10 µM | > 10 µM | 0.0001 to 10 µM | 0.0001 to 10 µM | CC(C)(C1CCN(C(=O)Nc2cccnc2)CC1)C(O)c1cc(Cl)cc2[nH]ncc12 (stereo not drawn) [Compound P-0075, 4-(1-(6-chloro-1H-indazol-4-yl)-1-hydroxy-2-methylpropan-2-yl)-N-(pyridin-3-yl)piperidine-1-carboxamide]
0.0001 to 10 µM | > 10 µM | 0.0001 to 10 µM | 0.0001 to 10 µM | CC(C)(C)OC(=O)N1CCC(C(C)(C)[C@@H](O)c2cc(Cl)cc3[nH]ncc23)CC1 [Compound P-0144, tert-butyl (R)-4-(1-(6-chloro-1H-indazol-4-yl)-1-hydroxy-2-methylpropan-2-yl)piperidine-1-carboxylate]
0.0001 to 10 µM | > 10 µM | 0.0001 to 10 µM | 0.0001 to 10 µM | CC(C)(C1CCN(C(=O)NCCF)CC1)C(O)c1cc(Cl)cc2[nH]ncc12 (stereo not drawn) [Compound P-0110, 4-(1-(6-chloro-1H-indazol-4-yl)-1-hydroxy-2-methylpropan-2-yl)-N-(2-fluoroethyl)piperidine-1-carboxamide]
0.0001 to 10 µM | > 10 µM | 0.0001 to 10 µM | 0.0001 to 10 µM | CC(C)(C1CCN(C(=O)Nc2ccc(F)cc2F)CC1)C(O)c1cc(Cl)cc2[nH]ncc12 (stereo not drawn) [Compound P-0082, 4-(1-(6-chloro-1H-indazol-4-yl)-1-hydroxy-2-methylpropan-2-yl)-N-(2,4-difluorophenyl)piperidine-1-carboxamide]
0.0001 to 10 µM | 0.0001 to 10 µM | 0.0001 to 10 µM | 0.0001 to 10 µM | CC(C)(C1CCN(C(=O)NOc2ccccc2)CC1)[C@H](O)c1cc(Cl)cc2cn[nH]c12 [Compound P-0066, (S)-4-(1-(5-chloro-1H-indazol-7-yl)-1-hydroxy-2-methylpropan-2-yl)-N-phenoxypiperidine-1-carboxamide]
0.0001 to 10 µM | 0.0001 to 10 µM | 0.0001 to 10 µM | 0.0001 to 10 µM | COCCNC(=O)N1CCC(C(C)(C)C(O)c2cc(Cl)cc3[nH]ncc23)CC1 (stereo not drawn) [Compound P-0083, 4-(1-(6-chloro-1H-indazol-4-yl)-1-hydroxy-2-methylpropan-2-yl)-N-(2-methoxyethyl)piperidine-1-carboxamide]
0.0001 to 10 µM | > 10 µM | 0.0001 to 10 µM | 0.0001 to 10 µM | CC(C)(C1CCN(S(=O)(=O)C2CC2)CC1)C(O)c1cc(Cl)cc2[nH]ncc12 (stereo not drawn) [Compound P-0073, 1-(6-chloro-1H-indazol-4-yl)-2-(1-(cyclopropylsulfonyl)piperidin-4-yl)-2-methylpropan-1-ol]
0.0001 to 10 µM | 0.0001 to 10 µM | 0.0001 to 10 µM | 0.0001 to 10 µM | CC(C)(C1CCN(C(=O)NC2CC2)CC1)C(O)c1cc(Cl)cc2[nH]ncc12 (stereo not drawn) [Compound P-0081, 4-(1-(6-chloro-1H-indazol-4-yl)-1-hydroxy-2-methylpropan-2-yl)-N-cyclopropylpiperidine-1-carboxamide]
